Reference: patent US20230073777A1, “CYCLIC-AMP RESPONSE ELEMENT BINDING PROTEIN (CBP) AND/OR ADENOVIRAL E1A BINDING PROTEIN OF 300 KDA (P300) DEGRADATION COMPOUNDS AND METHODS OF USE” (CULLGEN (SHANGHAI), INC., priority 2019, published 2023)
Entries after “also recorded” stand apart in the source; their conditions may differ. Read-outs that look alike come from different tables or passages of the source.

Tests used:
LNCaP cells = experiment: LNCaP cell viability assay (CellTiter-Glo); type: cell-based; details: Homo sapiens, 72 h, LNCaP prostate cancer cell viability inhibition, 3 days
Method in brief: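 LNCaP cells, 5000/well, exposed to compounds in 12-point 3-fold serial dilution (top 10 μM) for 3 days. Viability by CellTiter-Glo luminescence, normalized to untreated cells; IC50 by least-squares nonlinear regression.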

P300/CBP = experiment: Immunoblotting of P300/CBP protein levels in LNCaP or 22RV1 cells; type: cell-based; details: LNCaP cells, 10 nM single dose (FIG. 8)
Method: Specific exemplary bivalent compounds were characterized in LNCaP or 22RV1 cells. LNCaP or 22RV1 cells that express CBP/P300 proteins were treated with GNE-781 or the bivalent compounds disclosed herein (P-001 to P-174) for indicated hours. Cells were collected, lysed and subject to immunoblotting using an antibody specific to P300 or CBP proteins. Tubulin or vinculin was included as the loading control. DMSO was used as the negative control.
Cultured cells or tissue chunks were washed with cold PBS once and lysed in cold RIPA buffer supplemented with protease inhibitors and phosphatase inhibitors (Beyotime Biotechnology). The solutions were then incubated at 4° C. for 30 minutes with gentle agitation to fully lyse cells. Cell lysates were centrifuged at 13,000 rpm for 10 minutes at 4° C. and pellets were discarded. Total protein concentrations in the lysates were determined by BCA assays (Beyotime Biotechnology). Cell lysates were mixed with Laemmli loading buffer to 1× and heated at 99° C. for 5 min. Proteins were resolved on SDS-PAGE and visualized by chemiluminescence. Images were taken by a ChemiDoc MP Imaging system (Bio-Rad). Protein bands were quantitated using the accompanied software provided by Bio-Rad.

CBP = target: T1, CBP (Homo sapiens, UniProt Q92793); experiment: Pharmacodynamic study, CBP in 22RV1 subcutaneous xenograft tumors; type: in vivo, Athymic nude mice; details: single dose 40 mg/kg, i.p. or p.o., six hours after administration (FIG. 9)
T1 construct: from tissue; host or cells: 22RV1 subcutaneous xenograft tumours in athymic nude mice
Method: (§1) In addition to cultured cells, athymic nude mice bearing 22RV1 subcutaneous xenograft tumors at the right flank were intraperitoneally or orally treated with 40 mg/kg bivalent compounds. Six hours after drug administration, animals were sacrificed for immunoblotting of P300 and CBP in homogenized xenograft tumor masses. […] Moreover, ICR mice were orally treated with 40 mg/kg bivalent compounds. Six hours after drug administration, animals were sacrificed for immunoblotting of CBP in homogenized lung tissues.
(§2) Athymic nude mice bearing 22RV1 subcutaneous xenograft tumors at the right flank were intraperitoneally or orally treated with selected bivalent compounds at 40 mg/kg. Six hours after drug administration, animals were sacrificed, and xenograft tumors were collected for immunoblotting of P300 and CBP.
(§3) All animal experiments were performed under protocols approved by the Institutional Animal Care and Use Committee (IACUC) of Cullgen. Athymic nude mice (male, 5-weeks old) received 5 million 22RV1 cells subcutaneously inoculated at the right flank site. Twenty days following inoculation, tumors were approximately 500 mm^3 in size. Tumor-bearing mice were treated intraperitoneally or via oral gavage with vehicle or bivalent compounds at indicated doses. 6 hours after drug administration, animals were sacrificed, tumors were resected. Small chunks of tumors were homogenized for immunoblotting of P300/CBP and other proteins as indicated. Alternatively, ICR mice (male, 5-weeks old) were treated via oral gavage with vehicle or bivalent compounds at indicated doses. 6 hours after drug administration, animals were sacrificed, lung tissues were resected. Small chunks of lung tissues were homogenized for immunoblotting of CBP and other proteins as indicated.

P300 [1] = target: T2, P300 (Homo sapiens, UniProt Q09472); experiment: Pharmacodynamic study, P300 in 22RV1 subcutaneous xenograft tumors; type: in vivo, Athymic nude mice; design: from tissue; host or cells: 22RV1 subcutaneous xenograft tumours in athymic nude mice; details: single dose 40 mg/kg, i.p. or p.o., six hours after administration (FIG. 9)
Method: as §1, §2, §3

P300 [2] = target: T2, P300; experiment: Immunoblotting of P300 protein levels in LNCaP or 22RV1 cells; type: cell-based; design: LNCaP or 22RV1 cells that express CBP/P300 proteins were treated with GNE-781 or the bivalent compounds; endogenous in cells; host or cells: LNCaP (clone FGC) or 22RV1 cells; details: for inhibition at 0.01 µM: read-out: Degradation (10 nM)
Method in brief: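 LNCaP or 22RV1 cells treated with compounds for indicated hours, DMSO as negative control. RIPA lysates resolved by SDS-PAGE and immunoblotted for P300 or CBP, tubulin or vinculin as loading control; chemiluminescent bands quantitated.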

[3] = percentage of inhibition of p300 at 10 nM (Table 3)
[4] = percentage of inhibition of p300 at 10 nM (Table 2)

T2 sequence (Q09472 whole entry): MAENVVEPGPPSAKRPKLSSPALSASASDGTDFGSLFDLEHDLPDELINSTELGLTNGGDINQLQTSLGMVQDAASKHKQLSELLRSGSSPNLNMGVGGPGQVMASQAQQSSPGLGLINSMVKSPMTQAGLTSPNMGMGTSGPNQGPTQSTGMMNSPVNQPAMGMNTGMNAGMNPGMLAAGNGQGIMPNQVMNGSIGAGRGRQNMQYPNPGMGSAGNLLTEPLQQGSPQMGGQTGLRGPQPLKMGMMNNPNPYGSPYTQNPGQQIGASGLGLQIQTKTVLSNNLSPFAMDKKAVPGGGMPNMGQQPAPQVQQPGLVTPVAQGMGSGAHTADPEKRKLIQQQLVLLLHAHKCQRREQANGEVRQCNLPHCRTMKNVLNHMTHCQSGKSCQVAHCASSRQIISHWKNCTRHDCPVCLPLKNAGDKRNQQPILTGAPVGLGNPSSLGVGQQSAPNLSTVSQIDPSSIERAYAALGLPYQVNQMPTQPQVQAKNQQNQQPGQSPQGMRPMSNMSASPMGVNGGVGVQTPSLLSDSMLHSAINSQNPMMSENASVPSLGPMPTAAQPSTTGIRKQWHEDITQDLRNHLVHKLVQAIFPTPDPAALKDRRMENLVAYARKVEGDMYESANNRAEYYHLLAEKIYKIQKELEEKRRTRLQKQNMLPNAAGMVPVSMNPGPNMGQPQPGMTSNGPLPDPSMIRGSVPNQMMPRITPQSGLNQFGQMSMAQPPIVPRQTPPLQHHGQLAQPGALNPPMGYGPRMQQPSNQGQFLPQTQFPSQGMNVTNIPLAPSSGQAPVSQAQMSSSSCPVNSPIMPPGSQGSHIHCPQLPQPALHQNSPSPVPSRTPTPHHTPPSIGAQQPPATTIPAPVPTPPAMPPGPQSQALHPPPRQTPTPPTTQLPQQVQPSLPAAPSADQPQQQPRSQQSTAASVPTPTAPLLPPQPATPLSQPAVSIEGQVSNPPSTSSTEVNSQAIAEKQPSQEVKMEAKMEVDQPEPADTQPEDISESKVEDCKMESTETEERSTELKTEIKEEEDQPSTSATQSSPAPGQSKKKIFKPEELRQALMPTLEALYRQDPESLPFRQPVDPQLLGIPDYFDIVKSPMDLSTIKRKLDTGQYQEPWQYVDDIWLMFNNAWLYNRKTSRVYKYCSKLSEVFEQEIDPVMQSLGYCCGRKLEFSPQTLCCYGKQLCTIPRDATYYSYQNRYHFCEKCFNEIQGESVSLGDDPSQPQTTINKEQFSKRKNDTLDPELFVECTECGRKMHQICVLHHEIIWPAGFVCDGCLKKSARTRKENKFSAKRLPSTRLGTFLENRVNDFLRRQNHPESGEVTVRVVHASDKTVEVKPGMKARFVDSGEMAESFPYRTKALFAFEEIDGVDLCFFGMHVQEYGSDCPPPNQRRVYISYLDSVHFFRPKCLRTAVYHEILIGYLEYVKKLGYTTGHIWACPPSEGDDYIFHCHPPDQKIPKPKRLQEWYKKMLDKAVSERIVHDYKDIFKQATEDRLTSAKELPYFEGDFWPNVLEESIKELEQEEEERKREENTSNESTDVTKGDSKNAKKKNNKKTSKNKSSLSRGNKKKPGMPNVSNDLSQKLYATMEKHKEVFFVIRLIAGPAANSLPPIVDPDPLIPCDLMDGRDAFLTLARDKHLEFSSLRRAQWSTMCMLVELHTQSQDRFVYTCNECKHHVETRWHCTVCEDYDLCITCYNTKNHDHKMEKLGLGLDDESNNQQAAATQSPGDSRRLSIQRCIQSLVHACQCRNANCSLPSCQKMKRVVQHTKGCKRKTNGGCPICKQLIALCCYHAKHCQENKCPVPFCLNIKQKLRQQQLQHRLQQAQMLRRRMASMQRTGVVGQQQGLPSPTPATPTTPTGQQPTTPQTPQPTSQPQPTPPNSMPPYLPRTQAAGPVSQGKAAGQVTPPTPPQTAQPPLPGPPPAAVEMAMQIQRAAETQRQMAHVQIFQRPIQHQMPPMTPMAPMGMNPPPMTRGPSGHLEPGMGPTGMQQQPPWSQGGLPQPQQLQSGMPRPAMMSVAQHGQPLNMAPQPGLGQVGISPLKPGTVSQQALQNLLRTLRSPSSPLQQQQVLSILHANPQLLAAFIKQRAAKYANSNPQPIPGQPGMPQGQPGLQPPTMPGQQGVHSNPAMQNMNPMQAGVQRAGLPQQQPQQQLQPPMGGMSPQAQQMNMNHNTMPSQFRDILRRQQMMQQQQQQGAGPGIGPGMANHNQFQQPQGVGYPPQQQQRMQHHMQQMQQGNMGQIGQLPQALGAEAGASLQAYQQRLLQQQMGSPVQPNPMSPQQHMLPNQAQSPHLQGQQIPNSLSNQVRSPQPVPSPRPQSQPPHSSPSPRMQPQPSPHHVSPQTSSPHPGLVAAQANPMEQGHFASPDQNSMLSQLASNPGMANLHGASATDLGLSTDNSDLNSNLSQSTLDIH
T1 sequence (Q92793 whole entry): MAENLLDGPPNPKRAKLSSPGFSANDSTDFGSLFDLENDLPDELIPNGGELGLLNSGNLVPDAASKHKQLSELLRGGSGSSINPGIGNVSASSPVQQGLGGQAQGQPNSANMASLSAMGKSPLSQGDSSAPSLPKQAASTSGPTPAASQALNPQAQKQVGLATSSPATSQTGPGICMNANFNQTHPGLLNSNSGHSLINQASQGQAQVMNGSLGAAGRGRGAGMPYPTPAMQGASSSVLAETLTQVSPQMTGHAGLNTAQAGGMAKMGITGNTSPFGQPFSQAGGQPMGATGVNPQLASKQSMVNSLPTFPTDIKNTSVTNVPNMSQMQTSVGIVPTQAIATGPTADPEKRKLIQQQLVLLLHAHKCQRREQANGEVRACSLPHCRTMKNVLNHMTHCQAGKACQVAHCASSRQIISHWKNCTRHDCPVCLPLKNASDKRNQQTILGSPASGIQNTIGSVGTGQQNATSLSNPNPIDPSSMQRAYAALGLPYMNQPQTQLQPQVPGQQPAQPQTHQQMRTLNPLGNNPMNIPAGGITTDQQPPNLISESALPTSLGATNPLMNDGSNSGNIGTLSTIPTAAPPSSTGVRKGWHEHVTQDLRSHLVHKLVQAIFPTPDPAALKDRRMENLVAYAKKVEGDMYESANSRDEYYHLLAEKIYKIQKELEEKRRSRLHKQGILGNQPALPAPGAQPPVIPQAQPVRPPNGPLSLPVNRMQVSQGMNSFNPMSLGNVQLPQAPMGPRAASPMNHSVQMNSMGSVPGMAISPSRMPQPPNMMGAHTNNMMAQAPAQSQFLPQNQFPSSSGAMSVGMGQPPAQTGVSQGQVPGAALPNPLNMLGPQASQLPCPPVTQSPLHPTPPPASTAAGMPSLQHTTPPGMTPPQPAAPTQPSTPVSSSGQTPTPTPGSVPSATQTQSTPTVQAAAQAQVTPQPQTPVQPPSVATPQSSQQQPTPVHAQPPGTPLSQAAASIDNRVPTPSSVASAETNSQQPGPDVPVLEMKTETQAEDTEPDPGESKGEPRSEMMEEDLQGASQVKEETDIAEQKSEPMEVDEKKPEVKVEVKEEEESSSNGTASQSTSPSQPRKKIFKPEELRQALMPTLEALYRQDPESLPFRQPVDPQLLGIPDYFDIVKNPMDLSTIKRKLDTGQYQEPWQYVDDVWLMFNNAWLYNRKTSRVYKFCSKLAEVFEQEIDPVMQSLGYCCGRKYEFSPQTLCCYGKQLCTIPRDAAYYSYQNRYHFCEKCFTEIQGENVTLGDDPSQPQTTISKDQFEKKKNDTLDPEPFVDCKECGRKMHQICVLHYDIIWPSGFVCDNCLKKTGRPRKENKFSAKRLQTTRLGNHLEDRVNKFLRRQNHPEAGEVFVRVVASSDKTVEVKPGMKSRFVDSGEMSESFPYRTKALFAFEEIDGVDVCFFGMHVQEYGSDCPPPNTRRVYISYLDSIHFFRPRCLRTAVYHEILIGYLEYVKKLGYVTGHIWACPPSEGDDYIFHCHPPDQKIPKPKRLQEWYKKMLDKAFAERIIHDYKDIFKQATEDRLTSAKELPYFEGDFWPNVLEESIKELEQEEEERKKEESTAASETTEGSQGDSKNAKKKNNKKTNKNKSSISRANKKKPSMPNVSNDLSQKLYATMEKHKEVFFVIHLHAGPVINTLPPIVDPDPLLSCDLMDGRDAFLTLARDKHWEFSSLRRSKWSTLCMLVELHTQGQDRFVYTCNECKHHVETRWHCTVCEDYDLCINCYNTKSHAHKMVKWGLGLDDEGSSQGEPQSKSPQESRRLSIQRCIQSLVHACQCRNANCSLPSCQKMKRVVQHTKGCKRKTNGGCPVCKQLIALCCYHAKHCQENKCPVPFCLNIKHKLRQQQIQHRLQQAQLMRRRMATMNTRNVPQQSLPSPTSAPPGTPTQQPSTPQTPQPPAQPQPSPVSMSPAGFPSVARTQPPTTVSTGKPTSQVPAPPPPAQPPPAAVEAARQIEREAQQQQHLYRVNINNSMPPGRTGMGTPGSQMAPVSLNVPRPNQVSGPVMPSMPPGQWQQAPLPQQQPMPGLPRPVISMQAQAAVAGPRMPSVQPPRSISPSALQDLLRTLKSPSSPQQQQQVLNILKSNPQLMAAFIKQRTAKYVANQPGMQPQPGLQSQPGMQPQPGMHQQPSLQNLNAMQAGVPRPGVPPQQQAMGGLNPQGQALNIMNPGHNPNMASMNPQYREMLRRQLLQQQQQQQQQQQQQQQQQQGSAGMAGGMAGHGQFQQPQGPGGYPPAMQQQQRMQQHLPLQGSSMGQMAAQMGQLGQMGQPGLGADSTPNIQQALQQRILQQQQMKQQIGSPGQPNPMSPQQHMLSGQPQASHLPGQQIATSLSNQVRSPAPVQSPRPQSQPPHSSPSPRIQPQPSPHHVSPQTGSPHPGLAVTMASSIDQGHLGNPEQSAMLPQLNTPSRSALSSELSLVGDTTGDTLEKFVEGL

SMILES	IC50 (LNCaP cells; CellTiter-Glo (Table 3))	inhibition at 0.01 µM (P300 [2]; [3])	further results
CC(=O)N1CCc2c(c(N3CCCc4cc(-c5cnn(C)c5)c(C(F)F)cc43)nn2C2CCN(C(=O)CCCCCNc3cccc4c3C(=O)N(C3CCC(=O)NC3=O)C4=O)CC2)C1 (centres unmarked) [P-100, 4-((6-(4-(5-acetyl-3-(7-(difluoromethyl)-6-(1-methyl-1H-pyrazol-4-yl)-3,4-dihydroquinolin-1(2H)-yl)-4,5,6,7-tetrahydro-1H-pyrazolo[4,3-c]pyridin-1-yl)piperidin-1-yl)-6-oxohexyl)amino)-2-(2,6-dioxopiperidin-3-yl)isoindoline-1,3-dione]	0.0009 µM	> 80%	degradation of P300/CBP in combination with pomalidomide, MG-132, Bortezomib or MLN4924 (P300/CBP): compromised; also recorded: neutralized; CBP protein levels in 22RV1 xenograft tumors (CBP): significantly reducing; P300 protein levels in 22RV1 xenograft tumors (P300 [1]): significantly reducing; P300 protein levels, dependence on interaction with cereblon (P300 [2]; LNCaP or 22RV1 cells, various concentrations (FIG. 7)): reduced P300 protein levels in a concentration-dependent manner
CNC(=O)N1CCc2c(c(N3CCCc4cc(-c5cnn(CC(=O)NCCOCCNc6ccc7c(c6)C(=O)N(C6CCC(=O)NC6=O)C7=O)c5)c(C(F)F)cc43)nn2C2CCOCC2)C1 (centres unmarked) [P-028, 3-(7-(Difluoromethyl)-6-(1-(2-((2-(2-((2-(2,6-dioxopiperidin-3-yl)-1,3-dioxoisoindolin-5-yl)amino)ethoxy)ethyl)amino)-2-oxoethyl)-1H-pyrazol-4-yl)-3,4-dihydroquinolin-1(2H)-yl)-N-methyl-1-(tetrahydro-2H-pyran-4-yl)-1,4,6,7-tetrahydro-5H-pyrazolo[4,3-c]pyridine-5-carboxamide]	–	–	IC50 (LNCaP cells; CellTiter-Glo (Table 2)): 1.04 µM; inhibition at 0.01 µM (P300 [2]; [4]): < 20%
CC(=O)N1CCc2c(c(N3CCCc4cc(-c5cnn(C)c5)c(C(F)F)cc43)nn2C2CCN(C(=O)CN3CCC(CCc4cccc5c4C(=O)N(C4CCC(=O)NC4=O)C5=O)CC3)CC2)C1 (centres unmarked) [P-131, 4-(2-(1-(2-(4-(5-acetyl-3-(7-(difluoromethyl)-6-(1-methyl-1H-pyrazol-4-yl)-3,4-dihydroquinolin-1(2H)-yl)-4,5,6,7-tetrahydro-1H-pyrazolo[4,3-c]pyridin-1-yl)piperidin-1-yl)-2-oxoethyl)piperidin-4-yl)ethyl)-2-(2,6-dioxopiperidin-3-yl)isoindoline-1,3-dione]	0.014 µM	> 80%	–
CNC(=O)N1CCc2c(c(N3CCCc4cc(-c5cnn(C)c5)c(C(F)F)cc43)nn2C2CCN(C(=O)COCCOCCOCC(=O)N[C@H](C(=O)N3C[C@H](O)C[C@H]3C(=O)NCc3ccc(-c4scnc4C)cc3)C(C)(C)C)CC2)C1 [P-068, 3-(7-(Difluoromethyl)-6-(1-methyl-1H-pyrazol-4-yl)-3,4-dihydroquinolin-1(2H)-yl)-1-(1-((S)-13-((2S,4R)-4-hydroxy-2-((4-(4-methylthiazol-5-yl)benzyl)carbamoyl)pyrrolidine-1-carbonyl)-14,14-dimethyl-11-oxo-3,6,9-trioxa-12-azapentadecanoyl)piperidin-4-yl)-N-methyl-1,4,6,7-tetrahydro-5H-pyrazolo[4,3-c]pyridine-5-carboxamide]	0.0308 µM	< 20%	–
CNC(=O)N1CCc2c(c(N3CCCc4cc(-c5cnn(CC(=O)NCCCCCCCCCCC(=O)N[C@H](C(=O)N6C[C@H](O)C[C@H]6C(=O)NCc6ccc(-c7scnc7C)cc6)C(C)(C)C)c5)c(C(F)F)cc43)nn2C2CCOCC2)C1 [P-050, 3-(7-(Difluoromethyl)-6-(1-(2-((11-(((S)-1-((2S,4R)-4-hydroxy-2-((4-(4-methylthiazol-5-yl)benzyl)carbamoyl)pyrrolidin-1-yl)-3,3-dimethyl-1-oxobutan-2-yl)amino)-11-oxoundecyl)amino)-2-oxoethyl)-1H-pyrazol-4-yl)-3,4-dihydroquinolin-1(2H)-yl)-N-methyl-1-(tetrahydro-2H-pyran-4-yl)-1,4,6,7-tetrahydro-5H-pyrazolo[4,3-c]pyridine-5-carboxamide]	–	–	IC50 (LNCaP cells; CellTiter-Glo (Table 2)): 0.111 µM; inhibition at 0.01 µM (P300 [2]; [4]): 20 to 50%
CC(=O)N1CCc2c(c(N3CCCc4cc(-c5cnn(C)c5)c(C(F)F)cc43)nn2C2CCN(C(=O)CN3CCOC(CNc4cccc5c4C(=O)N(C4CCC(=O)NC4=O)C5=O)C3)CC2)C1 (centres unmarked) [P-141, 4-(((4-(2-(4-(5-Acetyl-3-(7-(difluoromethyl)-6-(1-methyl-1H-pyrazol-4-yl)-3,4-dihydroquinolin-1(2H)-yl)-4,5,6,7-tetrahydro-1H-pyrazolo[4,3-c]pyridin-1-yl)piperidin-1-yl)-2-oxoethyl)morpholin-2-yl)methyl)amino)-2-(2,6-dioxopiperidin-3-yl)isoindoline-1,3-dione]	0.156 µM	50 to 80%	–
CNC(=O)N1CCc2c(c(N3CCCc4cc(-c5cnn(C)c5)c(C(F)F)cc43)nn2C2CCN(C(=O)CCOCCOCCOCCOCCOCCNc3cccc4c3C(=O)N(C3CCC(=O)NC3=O)C4=O)CC2)C1 (centres unmarked) [P-055, 3-(7-(Difluoromethyl)-6-(1-methyl-1H-pyrazol-4-yl)-3,4-dihydroquinolin-1(2H)-yl)-1-(1-(1-((2-(2,6-dioxopiperidin-3-yl)-1,3-dioxoisoindolin-4-yl)amino)-3,6,9,12,15-pentaoxaoctadecan-18-oyl)piperidin-4-yl)-N-methyl-1,4,6,7-tetrahydro-5H-pyrazolo[4,3-c]pyridine-5-carboxamide]	0.161 µM	< 20%	–
CC(=O)N1CCc2c(c(N3CCCc4cc(-c5cnn(C)c5)c(C(F)F)cc43)nn2C2CCN(C(=O)CCN3CCC(CCc4cccc5c4C(=O)N(C4CCC(=O)NC4=O)C5=O)CC3)CC2)C1 (centres unmarked) [P-148, 4-(2-(1-(3-(4-(5-acetyl-3-(7-(difluoromethyl)-6-(1-methyl-1H-pyrazol-4-yl)-3,4-dihydroquinolin-1(2H)-yl)-4,5,6,7-tetrahydro-1H-pyrazolo[4,3-c]pyridin-1-yl)piperidin-1-yl)-3-oxopropyl)piperidin-4-yl)ethyl)-2-(2,6-dioxopiperidin-3-yl)isoindoline-1,3-dione]	0.0733 µM	> 80%	–
